Experimental data as given in patent US20060223743A1, “Metabolites of cyclosporin analogs” (priority 2004, published 2006).

System: calcineurin
Assay: Calcineurin activity assay in whole blood lysates (dephosphorylation of 32P-labelled 19 amino acid peptide substrate)
Type: biochemical
Details: in the presence of okadaic acid
Procedure: Calcineurin activity was assayed using a modification of the method previously described by Fruman et al. (A Proc Natl Acad Sci USA, 1992) and in U.S. Pat. No. 6,605,593. Whole blood lysates are evaluated for their ability to dephosphorylate a ^32P-labelled 19 amino acid peptide substrate in the presence of okadaic acid, a phosphatase-type 1 and 2 inhibitor. Background phosphatase 2C activity (CsA and okadaic acid resistant activity) is determined and subtracted from each sample, with the assay performed in the presence and absence of excess added ISA247. The remaining phosphatase activity is taken as calcineurin activity.

SMILES: C=C/C=C/C[C@@H](C)[C@@H](O)[C@H]1C(=O)N[C@@H](CC)C(=O)N(C)CC(=O)N(C)[C@@H](CC(C)C)C(=O)N[C@@H](C(C)C)C(=O)N(C)[C@@H](CC(C)C)C(=O)N[C@@H](C)C(=O)N[C@H](C)C(=O)N(C)[C@@H](CC(C)C)C(=O)N(C)[C@@H](CC(C)C)C(=O)N(C)[C@@H](C(C)C)C(=O)N1C [Trans ISA247]
- Metabolite EC50 (calcineurin inhibition): 0.208 µg/mL
- Metabolite Emax (percent calcineurin inhibition): 107%
